Results on six compounds are retold here after US20090017089A1, “Multiple active agents such as anthelmintics sustained release delivery device” (priority 2003, published 2009).

For one experiment, the system named is parasites of goats. As to conditions: Pomroy et al, 1992; cited from earlier work.
The next experiment deals with resistant parasites. As to conditions: Farm 4 from Anderson et al, 1991; cited from earlier work.
The next experiment relates to adult liver fluke. As to conditions: oral, Coles & Stafford 2001; cited from earlier work.
A further experiment concerns immature flukes. As to conditions: in vivo; cited from earlier work.
Experiment [1] relates to albendazole resistant Trichostrongylus axei. In words: Trial 1: repeated oral dosing of albendazole in lambs, worm count (abomasa).
For experiment [2], the system named is albendazole resistant Ostertagia Circumcincta. The experiment is described as above.
Experiment [3] relates to albendazole resistant Cooperia spp. Briefly: Trial 1: repeated oral dosing of albendazole in lambs, worm count (small intestine).
Experiment [4] relates to albendazole resistant Nematodirus spp. The description is as above.
Experiment [5] has as its system resistant Ostertagia circumcincta. In words: Trial 3: oral albendazole vs prototype albendazole bolus in adult ewes, worm count (abomasa). As to conditions: oral 5.0 mg/kg once.
The subject of experiment [6] is resistant Trichostrongylus axei. The description is as above. As to conditions: oral 5.0 mg/kg once.
The test system of experiment [7] is resistant Haemonchus Contortus. Described as above. As to conditions: oral 5.0 mg/kg once.
Another experiment relates to resistant Cooperia spp. In words: Trial 3: oral albendazole vs prototype albendazole bolus in adult ewes, worm count (small intestine). As to conditions: oral 5.0 mg/kg once.
The test system of experiment [8] is abamectin-resistant Ostertagia circumcincta. Briefly: Trial 2: repeated oral dosing of abamectin in lambs, worm count. The format is in vivo.
Experiment [9] deals with abamectin-resistant Trichostrongylus colubriformis. The experiment is described as above. The experiment is classed as in vivo.
The subject of experiment [10] is abamectin-resistant Cooperia spp. The experiment is described as above. The experiment is classed as in vivo.
The subject of experiment [11] is multiple drug resistant Ostertagia circumcincta. Briefly: Magnum combination bolus trial in sheep, efficacy based on worm counts. The format is in vivo. As to conditions: single standard oral doses. The method, then: (§1) This concept has again been tested for the present invention by constructing and testing for efficacy a Magnum bolus releasing 2 actives simultaneously. A prototype sheep bolus designed to release 5 mg/kg of albendazole and 0.18 mg/kg abamectin in a 50 kg sheep was tested against two species of multiple drench resistant parasites. Trial lambs ranged in weight from 48-55.5 kg.

The subject of experiment [12] is multiple drug resistant Trichostrongylus colubriformis. The experiment is described as above. As to conditions: single standard oral doses. The format is in vivo. As to the method:
as §1

On to `COC(=O)Nc1nc2ccc([S+]([O-])c3ccccc3)cc2[nH]1` (centres unmarked) [oxfendazole], for which, in the experiment on parasites of goats, the Efficacy is 82%.

Regarding ivermectin, the Efficacy in the experiment with parasites of goats was 27%.

With `CCCSc1ccc2nc(NC(=O)OC)[nH]c2c1` [Alb, albendazole], the Efficacy in the experiment with resistant parasites is reported as 73%. For the same compound, the “level of efficacy against adult liver fluke” value in the experiment with adult liver fluke is “variable and less than desirable”. Further, the “efficacy against immature flukes” value with immature flukes is on record as “ineffective”. The “% reduction in worm count Trichostrongylus axei” value is given as 87.5% in [1] (1.75 mg/kg for 7 days); 90.2% in experiment [1] (2.5 mg/kg for 7 days); 96.8% in [1] (3.75 mg/kg for 7 days); 97.6% in experiment [1] (5 mg/kg for 7 days); 82.9% in experiment [1] (5 mg/kg once); 91.8% in experiment [6]. Also, the “% reduction in worm count Ostertagia circumcincta” value in experiment [2] (1.75 mg/kg for 7 days) is 74.9%; in experiment [2] (2.5 mg/kg for 7 days) it was 57.0%; in [2] (3.75 mg/kg for 7 days) it was 70.9%; in [2] (5 mg/kg for 7 days), 92.3%; in experiment [2] (5 mg/kg once), 42.7%; in experiment [5] it was 59.3%. Further, the “% reduction in worm count Cooperia spp.” value is given as 57.1% in experiment [3] (1.75 mg/kg for 7 days); 67.5% in experiment [3] (2.5 mg/kg for 7 days); 83.3% in experiment [3] (3.75 mg/kg for 7 days); 86.9% in experiment [3] (5 mg/kg for 7 days); 36.9% in experiment [3] (5 mg/kg once); 59.3% in the experiment on resistant Cooperia spp.. Besides, the “% reduction in worm count Nematodirus spp.” value in experiment [4] (1.75 mg/kg for 7 days) is 58.9%; in experiment [4] (2.5 mg/kg for 7 days) it was 69.0%; in [4] (3.75 mg/kg for 7 days), 88.1%; in [4] (5 mg/kg for 7 days) it was 73.9%; in experiment [4] (5 mg/kg once), 71.2%. The “% reduction in worm count Haemonchus Contortus” value in [7] turned out to be 91.4%.

In the case of `c1ccc([C@H]2CN3CCSC3=N2)cc1` [Levamisole], in the experiment with resistant parasites, the Efficacy is 88%.

On to `CO/N=C1\C[C@]2(C[C@@H]3C[C@@H](C/C=C(\C)C[C@@H](C)/C=C/C=C4\CO[C@@H]5[C@H](O)C(C)=C[C@@H](C(=O)O3)[C@]45O)O2)O[C@H](/C(C)=C/C(C)C)[C@H]1C` [Moxidectin], for which, in experiment [8] (0.2 mg/kg once), the “% reduction in worm count Ostertagia circumcincta” value is reported as 76.3%. Moreover, in experiment [9] (0.2 mg/kg once), the “% reduction in worm count Trichostrongylus colubriformis” value worked out at 72.5%. Besides, the “% reduction in worm count Cooperia spp.” value in experiment [10] (0.2 mg/kg once) is reported as 99.1%. The “Efficacy based on worm counts Ostertagia circumcincta” value in [11] is 59.9. Besides, the “Efficacy based on worm counts Trichostrongylus colubriformis” value in experiment [12] was determined as 90.6.

abamectin: the “% reduction in worm count Ostertagia circumcincta” value in [8] (0.07 mg/kg for 7 days) came out at 77.2%; in experiment [8] (0.113 mg/kg for 7 days), 89.3%; in experiment [8] (0.18 mg/kg for 7 days), 96.4%; in experiment [8] (0.2 mg/kg once), 45.0%. Moreover, the “% reduction in worm count Trichostrongylus colubriformis” value amounted to 47.3% in [9] (0.07 mg/kg for 7 days), 55.3% in experiment [9] (0.113 mg/kg for 7 days), 77.1% in experiment [9] (0.18 mg/kg for 7 days) and 60.7% in experiment [9] (0.2 mg/kg once). In addition, the “% reduction in worm count Cooperia spp.” value in experiment [10] (0.07 mg/kg for 7 days) is reported as 99.1%; in experiment [10] (0.113 mg/kg for 7 days), 99.6%; in experiment [10] (0.18 mg/kg for 7 days) it was 100.0%; in [10] (0.2 mg/kg once), 94.9%.
